From US20170367330A1, “Method for stimulating induced insect resistance of rice” (ZHENJIANG UNIVERSITY, priority 2015, published 2017)

What was measured:
Assay type in all cases: in vivo
[1] = system: nymphs of the white-backed planthopper; test: Spray treatment of rice stems and leaves, survival of white-backed planthopper nymphs
Method: (§1) According to the second preferred embodiment of the present invention, the applied p-Fluorophenoxyacetic acids have concentrations of 20 mg/L and 100 mg/L. The rice is cultivated through the nutrient solution, and planted by each individual rice plant; the p-Fluorophenoxyacetic acid is prepared with water to have a certain concentration (20 mg/L or 100 mg/L), and thereafter stems and leaves of the rice are treated with spraying through a small sprayer; and tap water is adopted as a control group. After drops on the stems and leaves of the rice are totally dry, a special glass cover (with a diameter of 4 cm, a height of 8 cm, and 48 holes having a diameter of 0.8 mm uniformly provided on a wall) is placed on a stem of each individual rice plant, and 15 newly-hatched nymphs of the brown planthopper or the white-backed planthopper are introduced into each glass cover, wherein a top part of each glass cover is sealed by a circular sponge. The experiment is conducted in a phytotron with a temperature of 28±2° C., a humidity of 70-80% and 14 hours of illumination, survival numbers of the nymphs of the brown planthopper and the white-backed planthopper on each plant are recorded daily, and the experiment is repeated for 10 times.

[2] = system: nymphs of the white-backed planthopper; test: Stomach toxicity in planthopper artificial diet; conditions: for survival rate of the nymphs of the white-backed planthopper: artificial diet
Excerpt: In order to exclude possible influences of the p-Fluorophenoxyacetic acid itself on a survival rate of nymphs of the rice planthoppers, the third preferred embodiment of the present invention measures stomach toxicity and contact toxicity of the p-Fluorophenoxyacetic acids having different concentrations on the nymphs of the rice planthoppers. In the experiment for measuring the stomach toxicity of the p-Fluorophenoxyacetic acid on the nymphs of the rice planthoppers, the p-Fluorophenoxyacetic acids, having concentrations of 5 mg/L, 20 mg/L and 50 mg/L, are respectively added into planthopper artificial diets, and another planthopper artificial diet not containing the p-Fluorophenoxyacetic acid is adopted as control. The planthopper artificial diets containing the p-Fluorophenoxyacetic acids of different concentrations are respectively wrapped by a Parafilm sealing film and then placed at two ends (20 μL at one end) of a glass two-way tube having a diameter of 4 cm and a height of 8 cm, and 15 newly-hatched nymphs of the white-backed planthopper are introduced into each tube; wherein the glass two-way tube, in which the planthopper artificial diet not containing the p-Fluorophenoxyacetic acid is placed, is adopted as a control group. All the glass two-way tubes are placed in a phytotron (with a temperature of 28° C. and 12 hours of illumination), the artificial diet in each tube is changed once a day, and the survival number of the nymphs of the white-backed planthopper in each tube is recoded daily. The experiment is repeated for 10 times.

[3] = system: nymphs of the white-backed planthopper; test: Root absorption treatment of rice, survival of white-backed planthopper nymphs
Method: (§2) According to the first preferred embodiment of the present invention, the applied p-Fluorophenoxyacetic acids have concentrations of 1 mg/L and 10 mg/L. The rice is cultivated through the nutrient solution, and planted by each individual rice plant; the p-Fluorophenoxyacetic acid is added into the nutrient solution until a final concentration is 1 mg/L or 10 mg/L; and the nutrient solution without adding the p-Fluorophenoxyacetic acid is adopted as a control group. After treating with the p-Fluorophenoxyacetic acid for 12 hours, a special glass cover (with a diameter of 4 cm, a height of 8 cm, and 48 holes having a diameter of 0.8 mm uniformly provided on a wall) is placed on a stem of each individual rice plant, and 15 newly-hatched nymphs of the brown planthopper or the white-backed planthopper are introduced into each glass cover, wherein a top part of each glass cover is sealed by a circular sponge. The experiment is conducted in a phytotron with a temperature of 28±2° C., a humidity of 70-80% and 14 hours of illumination, survival numbers of the nymphs of the brown planthopper or the white-backed planthopper on each plant are recorded daily, and the experiment is repeated for 10 times.

[4] = system: Third-instar nymphs of the white-backed planthopper; test: Contact toxicity, spotting on third-instar nymphs; conditions: for survival rates of the nymphs of the planthoppers: spotted 1 μL
Method: In the experiment for measuring the contact toxicity of the p-Fluorophenoxyacetic acid on the nymphs of the rice planthoppers, the p-Fluorophenoxyacetic acids respectively having concentrations of 5 mg/L, 20 mg/L, and 50 mg/L are adopted, and distilled water not containing the p-Fluorophenoxyacetic acid is adopted as a control group. Third-instar nymphs of the white-backed planthopper, being narcotized by carbon dioxide, are spotted with the p-Fluorophenoxyacetic acid having the corresponding concentration or the distilled water (1 μL for each planthopper); after waking up, the planthoppers are fed on rice plants having an age of 30 days, wherein 15 planthoppers are fed on each rice plant; and the rice is placed in a phytotron with a temperature of 28±2° C., a humidity of 70-80% and 14 hours of illumination. The experiment is repeated for 10 times. Survival numbers of the nymphs of the planthoppers are observed and recorded respectively 24 hours and 48 hours after treatment.

[5] = system: contents of 4-hydroxybenzoic acid and γ-aminobutyric acid in the rice; test: Induced mechanism: contents of defense compounds in rice after root treatment; conditions: 5 mg/L in nutrient solution, 72 hours after treating
Method: According to the fourth preferred embodiment of the present invention, the applied p-Fluorophenoxyacetic acid has a concentration of 5 mg/L. The rice is cultivated through the nutrient solution, and planted by each individual rice plant; the p-Fluorophenoxyacetic acid is added into the nutrient solution of the rice until a final concentration is 5 mg/L, and another nutrient solution without adding the p-Fluorophenoxyacetic acid is adopted as a control group. The experiment is repeated for 5 times and conduced in a phytotron with a temperature of 28±2° C., a humidity of 70-80%, and 14 hours of illumination. […] The 4-hydroxybenzoic acid belongs to a phenolic acid defense compound, and the γ-aminobutyric acid belongs to a non-protein amino acid, which have direct toxicity effects on the insect pests and are able to influence a peripheral nervous system of the insects. Treating the rice with the p-Fluorophenoxyacetic acid is able to increase contents of the defense compounds, thereby generating a negative effect on the insect pests and increasing a resistance of the rice against the insect pests.

[6] = system: nymphs of the brown planthopper; test: Root absorption treatment of rice, survival of brown planthopper nymphs; conditions: for survival rate of the brown planthopper: 8th day
Method: as §2

[7] = system: nymphs of the brown planthopper; test: Spray treatment of rice stems and leaves, survival of brown planthopper nymphs; conditions: for survival rate of the brown planthopper: 8th day
Method: as §1

[8] = from the 2nd day after treating, FIG. 2

**Q.** What does the source list for `O=C(O)COc1ccc(F)cc1` [p-Fluorophenoxyacetic acid]?
**A.** survival rate of the white-backed planthopper ([1]; 20 mg/L, 8th day): 66.1%; survival rate of the white-backed planthopper nymphs ([1]; 100 mg/L, 8th day): 23.2%; survival rates of the nymphs of the white-backed planthopper, course [1, 8]: decreased obviously; survival rate of the nymphs of the white-backed planthopper ([2]; 5 mg/L, 2nd day): 85.5%; survival rate of the nymphs of the white-backed planthopper ([2]; 5 mg/L, 4th day): 58.6%; survival rate of the nymphs of the white-backed planthopper ([2]; 20 mg/L, 2nd day): 87.4%; survival rate of the nymphs of the white-backed planthopper ([2]; 20 mg/L, 4th day): 54.3%; survival rate of the nymphs of the white-backed planthopper ([2]; 50 mg/L, 2nd day): 81.3%; survival rate of the nymphs of the white-backed planthopper ([2]; 50 mg/L, 4th day): 57.6%; stomach toxicity on the planthoppers ([2]; artificial diet, 5, 20 and 50 mg/L): no stomach toxicity; survival rate of the white-backed planthopper ([3]; 1 mg/L in nutrient solution, 8th day): 41.3%; survival rate of white-backed planthopper nymphs ([3]; 10 mg/L in nutrient solution, 8th day): 3.1%; survival rates of the nymphs of the white-backed planthopper, course ([3]; from the 2nd day after treating, FIG. 1): decreased obviously; survival rates of the nymphs of the planthoppers ([4]; 5 mg/L, 24 hours after treating): 92.0%; survival rates of the nymphs of the planthoppers ([4]; 5 mg/L, 48 hours after treating): 92.0%; survival rates of the nymphs of the planthoppers ([4]; 20 mg/L, 24 hours after treating): 93.1%; survival rates of the nymphs of the planthoppers ([4]; 20 mg/L, 48 hours after treating): 91.6%; survival rates of the nymphs of the planthoppers ([4]; 50 mg/L, 24 hours after treating): 92.0%; survival rates of the nymphs of the planthoppers ([4]; 50 mg/L, 48 hours after treating): 90.8%; contact toxicity on the planthoppers ([4]; spotted 1 μL, 5, 20 and 50 mg/L): no contact toxicity; content of the 4-hydroxybenzoic acid of the experimental group versus the control group [5]: 2.12 times; content of the γ-aminobutyric acid of the experimental group versus the control group [5]: 2.86 times; survival rate of nymphs of the rice planthoppers, maximum decrease ([6]; general statement in the summary, rice planthoppers, concentration not given): below 10%; survival rate of the brown planthopper ([6]; root absorption, 1 mg/L in nutrient solution): 35.1%; survival rate of the brown planthopper ([6]; root absorption, 10 mg/L in nutrient solution): 1.5%; survival rates of the nymphs of the brown planthopper, course ([6]; root absorption, from the 2nd day after treating, FIG. 1): decreased obviously; survival rate of the brown planthopper ([7]; 20 mg/L): 60.3%; survival rate of the brown planthopper ([7]; 100 mg/L): 19.2%; survival rates of the nymphs of the brown planthopper, course [7, 8]: decreased obviously
